From ChEMBL document CHEMBL1828593 (Bioorg Med Chem, 2011)
Activity calls are given as the source filed them. The calls are words filed in the database; no cut-off is given here.

Key:
[1] = target: T1, Neuronal acetylcholine receptor; alpha4/beta2 (Homo sapiens, UniProt P17787+P43681); test: Displacement of [3H]epibatidine from human alpha4beta2 nAChR expressed in human HEK293T cells after 1.5 hrs by liquid scintillation counting; format: cell-based; conditions: HEK-293T
[2] = target: Acetylcholine-binding protein (Lymnaea stagnalis, UniProt P58154); test: Displacement of [3H]-epibatidine from histidine-tagged Lymnaea stagnalis AChBP expressed in Sf9 cells after 1.5 hrs by liquid scintillation counting
Acetylcholine-binding protein, sequence (P58154 whole entry): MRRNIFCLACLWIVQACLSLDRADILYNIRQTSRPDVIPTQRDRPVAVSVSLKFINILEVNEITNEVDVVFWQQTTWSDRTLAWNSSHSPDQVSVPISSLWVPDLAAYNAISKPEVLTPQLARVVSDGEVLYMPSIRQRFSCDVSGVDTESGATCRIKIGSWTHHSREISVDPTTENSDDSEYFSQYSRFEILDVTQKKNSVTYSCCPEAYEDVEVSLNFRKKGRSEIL

[3] = target: T1, Neuronal acetylcholine receptor; alpha4/beta2; test: Antagonist activity at human alpha4beta2 nAChR expressed in Xenopus oocytes assessed as inhibition of acetylcholine-induced effect at 100 uM by electrophysiology assay; format: functional, cell-based; conditions: Oocyte
[4] = target: T2, Neuronal acetylcholine receptor subunit alpha-7 (Homo sapiens, UniProt P36544); test: Antagonist activity at human alpha7 nAChR expressed in Xenopus oocytes assessed as acetylcholine-induced effect at 100 uM by electrophysiology assay; format: functional, cell-based; conditions: Oocyte
T2 sequence (P36544 whole entry): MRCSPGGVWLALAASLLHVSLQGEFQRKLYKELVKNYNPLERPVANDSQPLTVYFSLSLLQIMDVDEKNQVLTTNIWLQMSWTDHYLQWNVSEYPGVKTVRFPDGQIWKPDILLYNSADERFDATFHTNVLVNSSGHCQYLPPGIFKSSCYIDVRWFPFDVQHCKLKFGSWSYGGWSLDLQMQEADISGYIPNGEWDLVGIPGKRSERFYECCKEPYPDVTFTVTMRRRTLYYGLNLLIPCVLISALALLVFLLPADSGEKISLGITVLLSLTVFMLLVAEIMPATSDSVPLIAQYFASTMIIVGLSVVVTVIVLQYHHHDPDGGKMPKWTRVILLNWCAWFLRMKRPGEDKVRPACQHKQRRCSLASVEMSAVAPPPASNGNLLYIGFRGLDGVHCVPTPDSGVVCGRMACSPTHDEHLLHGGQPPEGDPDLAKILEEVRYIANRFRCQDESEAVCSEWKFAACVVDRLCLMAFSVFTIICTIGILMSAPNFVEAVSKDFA

[5] = target: T2, Neuronal acetylcholine receptor subunit alpha-7; test: Displacement of [3H]-MLA from human alpha7 nAChR expressed in human SH-SY5Y cells after 1.5 hrs by liquid scintillation counting; format: cell-based
[6] = Displacement of [3H]epibatidine from histidine-tagged Aplysia californica AChBP expressed in Sf9 cells after 1.5 hrs by liquid scintillation counting
[7] = target: T2, Neuronal acetylcholine receptor subunit alpha-7; test: Antagonist activity at human alpha7 nAChR expressed in Xenopus oocytes assessed as increase of acetylcholine-induced effect by electrophysiology assay; format: functional, cell-based, Oocyte
[8] = target: T1, Neuronal acetylcholine receptor; alpha4/beta2; test: Antagonist activity at human alpha4beta2 nAChR high affinity site expressed in Xenopus oocytes assessed as inhibition of acetylcholine-induced effect at 220 uM by electrophysiology assay; format: functional, cell-based; conditions: Oocyte
[9] = target: T2, Neuronal acetylcholine receptor subunit alpha-7; test: Antagonist activity at human alpha7 nAChR low affinity site expressed in Xenopus oocytes assessed as inhibition of acetylcholine-induced effect at 20 uM by electrophysiology assay; format: functional, cell-based; conditions: Oocyte
[10] = target: T1, Neuronal acetylcholine receptor; alpha4/beta2; test: Antagonist activity at human alpha4beta2 nAChR low affinity site expressed in Xenopus oocytes assessed as inhibition of acetylcholine-induced effect at 220 uM by electrophysiology assay; format: functional, cell-based; conditions: Oocyte
[11] = target: T1, Neuronal acetylcholine receptor; alpha4/beta2; test: Competitive inhibition of human alpha4beta2 nAChR expressed in Xenopus oocytes by electrophysiology assay; format: cell-based; conditions: Oocyte
[12] = target: T1, Neuronal acetylcholine receptor; alpha4/beta2; test: Antagonist activity at human alpha4beta2 nAChR expressed in Xenopus oocytes assessed as increase of acetylcholine-induced effect by electrophysiology assay; format: functional, cell-based, Oocyte
[13] = target: T1, Neuronal acetylcholine receptor; alpha4/beta2; test: Antagonist activity at human alpha4beta2 nAChR high affinity site expressed in Xenopus oocytes assessed as inhibition of acetylcholine-induced effect at 10 uM by electrophysiology assay; format: functional, cell-based; conditions: Oocyte
[14] = target: T1, Neuronal acetylcholine receptor; alpha4/beta2; test: Antagonist activity at human alpha4beta2 nAChR low affinity site expressed in Xenopus oocytes assessed as inhibition of acetylcholine-induced effect at 10 uM by electrophysiology assay; format: functional, cell-based; conditions: Oocyte
[15] = target: T2, Neuronal acetylcholine receptor subunit alpha-7; test: Antagonist activity at human alpha7 nAChR low affinity site expressed in Xenopus oocytes assessed as inhibition of acetylcholine-induced effect at 7 uM by electrophysiology assay; format: functional, cell-based; conditions: Oocyte
[16] = target: T2, Neuronal acetylcholine receptor subunit alpha-7; test: Competitive inhibition of human alpha7 nAChR expressed in Xenopus oocytes by electrophysiology assay; format: cell-based; conditions: Oocyte
[17] = target: T1, Neuronal acetylcholine receptor; alpha4/beta2; test: Antagonist activity at human alpha4beta2 nAChR low affinity site expressed in Xenopus oocytes assessed as inhibition of acetylcholine-induced effect at 55 uM by electrophysiology assay; format: functional, cell-based; conditions: Oocyte
[18] = target: T1, Neuronal acetylcholine receptor; alpha4/beta2; test: Antagonist activity at human alpha4beta2 nAChR high affinity site expressed in Xenopus oocytes assessed as inhibition of acetylcholine-induced effect at 55 uM by electrophysiology assay; format: functional, cell-based; conditions: Oocyte
[19] = target: T2, Neuronal acetylcholine receptor subunit alpha-7; test: Antagonist activity at human alpha7 nAChR low affinity site expressed in Xenopus oocytes assessed as inhibition of acetylcholine-induced effect at 10 uM by electrophysiology assay; format: functional, cell-based; conditions: Oocyte

T1 sequence (P17787 whole entry): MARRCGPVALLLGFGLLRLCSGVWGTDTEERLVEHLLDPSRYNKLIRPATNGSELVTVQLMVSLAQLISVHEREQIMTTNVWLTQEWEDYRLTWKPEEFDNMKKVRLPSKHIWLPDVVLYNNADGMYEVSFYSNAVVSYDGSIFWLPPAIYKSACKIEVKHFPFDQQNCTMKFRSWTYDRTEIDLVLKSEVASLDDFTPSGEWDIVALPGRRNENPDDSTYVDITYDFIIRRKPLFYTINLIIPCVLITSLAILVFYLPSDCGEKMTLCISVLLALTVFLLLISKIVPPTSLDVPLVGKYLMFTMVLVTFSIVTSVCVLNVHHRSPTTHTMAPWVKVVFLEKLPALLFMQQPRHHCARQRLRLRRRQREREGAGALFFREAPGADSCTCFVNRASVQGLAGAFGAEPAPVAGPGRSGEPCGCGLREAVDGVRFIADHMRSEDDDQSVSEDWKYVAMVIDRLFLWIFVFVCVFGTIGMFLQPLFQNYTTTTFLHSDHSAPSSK
T1 sequence (P43681 whole entry): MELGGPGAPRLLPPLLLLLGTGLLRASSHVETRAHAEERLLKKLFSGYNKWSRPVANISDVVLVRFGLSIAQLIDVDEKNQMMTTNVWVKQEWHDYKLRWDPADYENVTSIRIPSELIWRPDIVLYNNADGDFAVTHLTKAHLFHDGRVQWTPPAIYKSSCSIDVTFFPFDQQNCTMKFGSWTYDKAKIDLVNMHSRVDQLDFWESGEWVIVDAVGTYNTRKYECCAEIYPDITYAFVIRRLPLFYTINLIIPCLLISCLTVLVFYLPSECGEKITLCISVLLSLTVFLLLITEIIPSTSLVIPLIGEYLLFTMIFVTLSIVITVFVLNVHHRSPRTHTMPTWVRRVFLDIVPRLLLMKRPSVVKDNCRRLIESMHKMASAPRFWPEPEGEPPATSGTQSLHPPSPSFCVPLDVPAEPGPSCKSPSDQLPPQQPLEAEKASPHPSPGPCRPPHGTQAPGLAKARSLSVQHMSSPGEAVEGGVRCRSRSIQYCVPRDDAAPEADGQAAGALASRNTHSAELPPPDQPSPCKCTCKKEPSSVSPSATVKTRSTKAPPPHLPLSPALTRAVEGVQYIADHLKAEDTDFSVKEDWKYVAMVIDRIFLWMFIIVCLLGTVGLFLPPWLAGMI

Compound | Activity [1] | Ki [2] | Ki [5] | further results
O=C1CN(Cc2ccccc2)Cc2ccsc21 | inactive | ≥ 31.6 µM | ≥ 31.6 µM | inhibition [3]: inactive; inhibition [4]: inactive
CC(Cc1ccccc1)NC1CN2CCC1CC2 (stereo not drawn) | inactive | 3.16 µM | ≥ 31.6 µM | –
CN1CCC(c2noc3ccccc23)CC1 | inactive | 12.6 µM | ≥ 31.6 µM | –
CC(=O)OCC[N+](C)(C)C [ACETYLCHOLINE] | – | 6.31 µM | – | pKi [6]: 4.3
c1ccc2c3c([nH]c2c1)C1CCCN1CC3 (stereo not drawn) | inactive | 1.26 µM | ≥ 31.6 µM | –
CCN(CC)Cc1csc2ccc(Cl)cc12 | inactive | 3.98 µM | ≥ 31.6 µM | –
CC1NCCOC1c1ccc(Cl)cc1 (stereo not drawn) | inactive | 12.6 µM | ≥ 31.6 µM | EC50 [7]: 10 µM; inhibition [8]: 19%; inhibition [9]: Active; inhibition [10]: 81%
Cc1ccccc1C(OCCN1CCCCC1)c1ccccc1 (stereo not drawn) | inactive | 0.316 µM | 20 µM | –
NCC(c1ccc(Cl)cc1)c1ccc(Sc2ccccc2)cc1 (stereo not drawn) | inactive | ≥ 31.6 µM | ≥ 31.6 µM | EC50 [7]: 10 µM; inhibition [11]: inactive
CN1CC2Cc3ccccc3C1c1ccccc12 (stereo not drawn) | inactive | 0.794 µM | ≥ 31.6 µM | EC50 [12]: 10 µM
NCc1ccsc1C(O)c1ccccc1 (stereo not drawn) | inactive | 25.1 µM | ≥ 31.6 µM | –
C=CC1CN2CCC1CC2c1[nH]c2ccccc2c1CCO (stereo not drawn) | inactive | 0.398 µM | ≥ 31.6 µM | –
NCC(OCc1ccc(Cl)cc1)c1ccccc1 (stereo not drawn) | inactive | 6.31 µM | ≥ 31.6 µM | pKi [6]: 4.9; inhibition [13]: 13%; inhibition [11]: inactive; inhibition [14]: 87%; inhibition [15]: Active; EC50 [12]: 10 µM; inhibition [16]: Active
c1ccc(C2CCN(CCc3cc4ccccc4[nH]3)CC2)cc1 | inactive | 1 µM | ≥ 31.6 µM | inhibition [17]: 75%; EC50 [7]: 10 µM; inhibition [18]: 25%; pKi [6]: 5.3; inhibition [11]: inactive; inhibition [19]: Active; inhibition [16]: Active
CC(C)(C)c1ccc(C(CN)c2ccccc2)cc1 (stereo not drawn) | inactive | ≥ 31.6 µM | ≥ 31.6 µM | –
c1ccc(Sc2ccccc2CN2CCCC2)cc1 | inactive | 0.2 µM | 15.8 µM | –
CC1CC[N+]2(C)CCc3c([nH]c4ccccc34)C2C1 (stereo not drawn) | inactive | 0.631 µM | ≥ 31.6 µM | –
CC1CCN(CCc2cc3ccccc3[nH]2)CC1 | inactive | 10 µM | ≥ 31.6 µM | EC50 [7]: 10 µM

Compound | Activity [1] | Ki [2] | Ki [5] | further results
NCC(c1ccccc1)c1ccc(-c2ccccc2)cc1 (stereo not drawn) | inactive | 12.6 µM | ≥ 31.6 µM | EC50 [12]: 10 µM
c1ccc2c(CN3CCCCC3)csc2c1 | inactive | 1 µM | 15.8 µM | –
ClC1(CNc2ccccc2)CCN(Cc2ccccc2)CC1 | inactive | 1.58 µM | ≥ 31.6 µM | –
Cc1ccc(C(c2ccc(C)cc2)N(C)C)cc1 | inactive | ≥ 31.6 µM | ≥ 31.6 µM | EC50 [7]: 10 µM
CC(C)(C)C(N)/C=C/c1ccc(Cl)cc1Cl (stereo not drawn) | inactive | 12.6 µM | ≥ 31.6 µM | –
c1ccc2c(c1)CCc1ccccc1C2NC12CC3CC(CC(C3)C1)C2 | inactive | ≥ 31.6 µM | ≥ 31.6 µM | inhibition [3]: inactive; inhibition [4]: inactive
c1ccc2c(c1)CC1CNC2c2ccccc21 (stereo not drawn) | inactive | 12.6 µM | ≥ 31.6 µM | EC50 [12]: 10 µM
CSc1[nH]c2ccccc2c1CN1CCCCC1 | inactive | 1.58 µM | 3.98 µM | –
NCC(OCc1ccc(Cl)cc1Cl)c1ccccc1 (stereo not drawn) | inactive | 5.01 µM | ≥ 31.6 µM | EC50 [12]: 10 µM
CN1CCN(Cc2ccccc2Sc2ccccc2)CC1 | inactive | 1.58 µM | 20 µM | –
C[N+]1(CCO)Cc2sc3ccc(Cl)cc3c2C1 (stereo not drawn) | inactive | 1 µM | 20 µM | –
O=C1COc2ccccc2N1CCCCN1CCc2ccccc2C1 | inactive | 0.501 µM | ≥ 31.6 µM | –
c1ccc(C2CCN(CCc3nc4ccccc4[nH]3)CC2)cc1 | inactive | 2.51 µM | ≥ 31.6 µM | EC50 [7]: 10 µM
c1ccc(CN2CCN(CCCSc3cc4ccccc4[nH]3)CC2)cc1 | inactive | 2 µM | ≥ 31.6 µM | –
Cc1ccc(C(OCC2CCC[N+](C)(C)C2)c2ccccc2)cc1 (stereo not drawn) | inactive | 0.501 µM | 10 µM | –
CC1(C)C=C(c2cc(Br)c(C3=CC(C)(C)NC(C)(C)C3)s2)CC(C)(C)N1 | inactive | 0.398 µM | ≥ 31.6 µM | –
CC1CC2(CCCCC2)NCc2ccccc21 (stereo not drawn) | inactive | 0.631 µM | ≥ 31.6 µM | –
OC(COCc1ccc(Cl)cc1)CN1CCc2ccccc2C1 (stereo not drawn) | inactive | 1.58 µM | ≥ 31.6 µM | –
